Assay results as given in ChEMBL document CHEMBL1909508, “Structure-activity relationship study of arylsulfonylimidazolidinones as anticancer agents” (Bioorg Med Chem Lett, 2011).

Assays:
A549 = experiment: Cytotoxicity against human A549 cells by MTT assay; type: functional, cell-based
HCT-116 = experiment: Cytotoxicity against human HCT116 cells by MTT assay; type: functional, cell-based
NCI-H460 = experiment: Cytotoxicity against human NCI-H460 cells by MTT assay; type: functional, cell-based
[1] = Inhibition of tubulin polymerization

Row | IC50 [1] | SMILES | IC50 (A549) | IC50 (HCT-116) | IC50 (NCI-H460)
1 | – | CCOC(=O)Nc1ccc(S(=O)(=O)N2C[C@H](c3ccccc3)NC2=O)c(C)c1C | 0.3 µM | 0.35 µM | 0.3 µM
2 | – | COc1cccc2c1C(=O)c1c(O)c3c(c(O)c1C2=O)C[C@@](O)(C(=O)CO)C[C@@H]3O[C@H]1C[C@H](N)[C@H](O)[C@H](C)O1 [DOXORUBICIN] | – | 0.4 µM | 0.456 µM
3 | – | CCOC(=O)Nc1ccc(S(=O)(=O)N2C[C@H](c3ccccc3)NC2=O)cc1F | 3.8 µM | 5 µM | 4.5 µM
4 | – | CC1[C@H](c2ccccc2)NC(=O)N1S(=O)(=O)c1ccc(NC(=O)c2ccc(N)cc2)c(Cl)c1 (some centres not stated) | > 10 µM | > 10 µM | > 10 µM
5 | – | CCc1cc(S(=O)(=O)N2C[C@H](c3ccccc3)NC2=O)ccc1NC(=O)c1ccc(N)cc1 | 0.22 µM | 0.46 µM | 0.67 µM
6 | 6 µM | CCOC(=O)Nc1ccc(S(=O)(=O)N2C[C@H](c3ccccc3)NC2=O)cc1C | 0.05 µM | 0.07 µM | 0.07 µM
7 | – | CCCCOC(=O)Nc1ccc(S(=O)(=O)N2C[C@H](c3ccccc3)NC2=O)cc1CC | 0.2 µM | 0.2 µM | 0.2 µM
8 | – | CCCOC(=O)Nc1ccc(S(=O)(=O)N2C[C@H](c3ccccc3)NC2=O)cc1CC | 0.06 µM | 0.06 µM | 0.06 µM
9 | – | CCOC(=O)Nc1ccc(S(=O)(=O)N2C(=O)N[C@@H](c3ccccc3)C2C)cc1Cl (some centres not stated) | 6 µM | 5.5 µM | 6 µM
10 | – | CCc1cc(S(=O)(=O)N2C[C@H](c3ccccc3)NC2=O)ccc1NC(=O)NC1CCCCC1 | 0.5 µM | 0.3 µM | 0.3 µM
11 | – | CCc1cc(S(=O)(=O)N2C[C@H](c3ccccc3)NC2=O)ccc1NC(=O)NC(C)C | 0.1 µM | 0.06 µM | 0.07 µM
12 | – | CC1[C@H](c2ccccc2)NC(=O)N1S(=O)(=O)c1ccc(NC(=O)c2ccc([N+](=O)[O-])cc2)c(Cl)c1 (some centres not stated) | > 10 µM | > 10 µM | > 10 µM
13 | – | CCc1cc(S(=O)(=O)N2C[C@H](c3ccccc3)NC2=O)ccc1NC(=O)OCC(C)C | 0.07 µM | 0.06 µM | 0.08 µM
14 | – | CCc1cc(S(=O)(=O)N2C[C@H](c3ccccc3)NC2=O)ccc1NC(=O)OC | 0.25 µM | 0.2 µM | 0.3 µM
15 | 5.5 µM | Nc1ccc(C(=O)Nc2ccc(S(=O)(=O)N3C[C@H](c4ccccc4)NC3=O)cc2Cl)cc1 | – | – | –
16 | – | CCc1cc(S(=O)(=O)N2C[C@H](c3ccccc3)NC2=O)ccc1NC(=O)c1ccc([N+](=O)[O-])cc1 | 0.7 µM | 0.5 µM | 0.8 µM
17 | – | Cc1cc(S(=O)(=O)N2C(=O)N[C@@H](c3ccccc3)C2C)ccc1NC(=O)c1ccc(N)cc1 (some centres not stated) | > 10 µM | > 10 µM | > 10 µM
18 | – | CCOC(=O)Nc1ccc(S(=O)(=O)N2C[C@H](c3ccccc3)NC2=O)cc1CC | 0.06 µM | 0.07 µM | 0.07 µM
19 | – | CCOC(=O)Nc1c(C)cc(S(=O)(=O)N2C[C@H](c3ccccc3)NC2=O)cc1C | > 10 µM | > 10 µM | > 10 µM
20 | – | CCc1cc(S(=O)(=O)N2C[C@H](c3ccccc3)NC2=O)ccc1NC(=O)OC(C)C | 0.06 µM | 0.06 µM | 0.06 µM
21 | – | CCOC(=O)Nc1ccc(S(=O)(=O)N2C[C@H](c3ccccc3)NC2=O)cc1Cl | 0.02 µM | 0.2 µM | 0.02 µM
22 | – | CCOC(=O)Nc1ccc(S(=O)(=O)N2C(=O)N[C@@H](c3ccccc3)C2C)cc1C (some centres not stated) | 5 µM | 5.5 µM | 5 µM
23 | – | Cc1cc(S(=O)(=O)N2C(=O)N[C@@H](c3ccccc3)C2C)ccc1NC(=O)c1ccc([N+](=O)[O-])cc1 (some centres not stated) | > 10 µM | > 10 µM | > 10 µM
